Measured values taken from patent US5536723A, “S-nitroso derivatives of hydrazinoacetic acids, 1-[(acylthio and (mercapto)-1-oxoalkyl]-1,2,34-Tetrahydroquinoline-2-carboxylic acids and alanyl prolines and isoquinolines” (Brigham & Women's Hospital, priority 1994, dated 1996).
Entries after “also recorded” stand apart in the source; their conditions may differ. Read-outs that look alike come from different tables or passages of the source.

How the values were obtained:
[1] = decay of the S-nitroso bond in plasma (PPP); type: in vitro ADME; settings: room temperature
Method: (§1) The half-life of the S-nitroso bond of S-nitrosocaptopril in physiologic buffer and in plasma was determined by incubating purified S-nitrosocaptopril in aerated PSS or in PPP, the results of which are shown in FIG. 1.

[2] = tested on: cGMP (and cAMP) in platelets; assay: cGMP (and cAMP) levels in platelets; type: cell-based; settings: 10^-5 M, one minute
Method: (§2) Since the postulated mechanism by which the nitrosothiol moiety of S-nitrosocaptopril directly relaxes vascular smooth muscle and attenuates the platelet aggregation response is believed to be through activation of soluble guanylate cyclase, cGMP (and cAMP) levels were measured in vessel ring segments and in platelets incubated with 10^-5 M S-nitrosocaptopril.

[3] = tested on: bovine femoral artery, contraction to angiotensin II; assay: contraction of the bovine femoral artery to angiotensin II
Method: The data are expressed as a percentage of the maximal response to norepinephrine (10^-4 M) and are shown as mean ±SEM in each group (n=6).
(§3) Blood Vessel Preparation. Bovine coronary or femoral arteries were obtained from an abattoir immediately after sacrifice of two- to four-week-old calves. Immediately after removal, the vessel was placed in ice-cold physiologic salt solution (PSS) containing 118.3 mM NaCl, 4.7 mM KCl, 2.5 mM CaCl2, 1.2 mM MgSO4, 1.2 mM KH2 PO4, 25.0 mM NaHCO3, 11.1 mM glucose, and 0.026 mM calcium disodium (ethylenedinitrilo)-tetraacetate. The vessels were then cleaned of adventitial tissue and cut into rings of approximately 5 mm lengths. When called for by the protocol, endothelium was removed from a ring by gently rubbing the luminal surface with a watchmaker's forceps. Vascular rings with intact endothelium were then suspended in organ chambers containing 25 ml of PSS at 37° aerated with 95% O2 -5% CO2. The rings were connected to force transducers (Grass FT03C, Quincy, Mass.) and changes in isometric force recorded continuously (Grass Polygraph Model 79B) over a period of 90 minutes. The optimal length-tension relationship was determined for each ring by observing the response to 10^-6 M norepinephrine after increments in tension of 0.5 gm. The functional integrity of the endothelium was assessed by contracting the vessel with 10^-6 M norepinephrine and then observing the response to 3×10^-7 M acetylcholine chloride.

[4] = tested on: platelets; assay: platelet aggregation in PRP induced by ADP; type: cell-based, human; settings: Homo sapiens, Platelet, 11 μM ADP
Method: FIG. 7 depicts a graph showing the effect of S-nitrosocaptopril on platelet aggregation. Platelets in PRP were incubated with S-nitrosocaptopril over a range of concentrations for three minutes, after which ADP was added to a final concentration of 11 uM. The maximal rate of aggregation was measured and plotted as a percentage of that observed in the absence of S-nitrosocaptopril. Each point represents the mean ±SEM of five experiments each performed in duplicate.
Platelets. Volunteers who had not ingested acetylsalicylic acid for at least ten days provided venous blood within one hour of use. […] Platelet counts were determined using a Coulter counter (Model ZM; Coulter Electronics, Hialeah, Fla.) and adjusted with platelet-poor plasma (PPP) to 1.5×10^8 platelets/ml prior to use.
Platelet Aggregation. Platelet aggregation was monitored using a standard nephelometric technique (Born and Cross, J. Physiol (London) 168:178-195 (1963)) in which PRP was incubated at 37° with a final concentration of 11 μM ADP and stirred at 900 rpm in a Payton dual channel aggregometer (Payton Associates, Inc., Buffalo, N.Y.). Aggregation was quantitated by measuring either the maximal rate of change of light transmittance or the extent of change of light transmittance. […]

[5] = tested on: bovine coronary artery; assay: relaxation of isolated bovine coronary artery rings contracted with potassium chloride
Source text: FIG. 5 depicts a graph showing the relaxation to sodium nitroprusside in the bovine coronary artery in the presence (o; n=7) or absence (; n:12) of a subthreshhold dose of S-nitrosocaptopril. The data are expressed as a percentage of the initial tension generated by potassium chloride (4×10^-2 M; coronary arteries) and are shown as mean ±SEM in each group.
as §3
Thus, to study vasodilating agents in this tissue the vessels were first contracted with potassium chloride (40 mM). Relaxations are expressed as a percent of the concentration to 40 mM potassium chloride.
Relaxations to S-nitrosocaptopril were inhibited by the antagonist of soluble guanylate cyclase, methylene blue (FIG. 4). Sodium nitroprusside induced dose-dependent relaxations of contractions to potassium chloride. The relaxation to sodium nitroprusside was inhibited by subthreshold doses of S-nitrosocaptopril (FIG. 5).

[6] = tested on: bovine femoral artery, response to bradykinin; assay: response of the bovine femoral artery to bradykinin; settings: 10^-6 M
Method: as §3
In the bovine femoral artery contracted with a concentration of norepinephrine inducing a half-maximal response, bradykinin induced a biphasic response.

[7] = spontaneous hydrolysis (half-life of the S-nitroso bond) in physiologic buffer (PSS); type: physicochemical; settings: 37° C.
Method: FIG. 1 depicts a graph showing the spontaneous hydrolysis of S-nitrosocaptopril in PBS. Each point represents the mean ±SEM of four experiments performed in duplicate.
as §1

[8] = tested on: bovine femoral artery; assay: relaxation of isolated bovine femoral artery rings contracted with norepinephrine; settings: for IC50: Bos taurus
Method: FIG. 2 depicts a graph showing the effect of S-nitrosocaptopril on the contraction of bovine femoral arteries to norepinephrine.
as §3
Vascular ring segments with intact endothelium were […] contracted with a concentration of norepinephrine inducing a half-maximal response. After a stable contraction had been achieved, the tissue was exposed to increasing concentrations of S-nitrosocaptopril in cumulative half-log increments. […] The apparent IC50 is approximately 1 μM.

[9] = arterial pressure in the anesthetized rabbit; type: in vivo; settings: 1 mM solution infused in an ear vein, 0.02 to 2.2 ml/min
Method: A 1 mM solution of S-nitrosocaptopril was infused in an ear vein of the rabbit at rates from 0.02 to 2.2 ml/min and the phasic and mean arterial pressure recorded in the femoral artery.

[10] = tested on: cGMP (and cAMP) in vascular rings; assay: cGMP (and cAMP) levels in vessel ring segments; type: cell-based; settings: 10^-5 M, one minute
Method: as §2

**Q.** What does the source list for `C[C@H](CSN=O)C(=O)N1CCC[C@H]1C(=O)O` [S-nitrosocaptopril]?
**A.** estimated half-life of the S-nitroso bond [1]: ~2.5 h; cAMP levels, platelets (in words) [2]: did not change from basal levels; cGMP level, platelets [2]: 5.44 pmoles/10^8 platelets; fold induction at 10 µM ([2]; Platelet, 1 min, read-out: increase of cGMP levels, platelets): 11.3; shift rightward in the dose response curve to angiotensin II [3]: 5 fold; responses to angiotensin II in the presence of S-nitrosocaptopril (in words) ([3]; 10^-6 M, FIG. 10): significantly less than control; IC50 [4]: ~80 µM; IC50 ([5]; Bos taurus, contracted with potassium chloride (40 mM)): 1.9 µM; Emax ([5]; Bos taurus, contracted with potassium chloride (40 mM), read-out: maximal relaxation, coronary artery): 97 ± 7%; maximum inhibitory effect / relaxation, coronary artery compared with femoral artery (in words) ([5]; FIG. 3): significantly greater than those in the femoral artery (p<0.05); also recorded: significantly greater in the coronary artery than in the femoral artery; effect on relaxation to sodium nitroprusside (in words) ([5]; subthreshold doses of S-nitrosocaptopril, FIG. 5): inhibited; effect on the response to bradykinin (in words) [6]: Neither response to bradykinin was affected; estimated half-life of the S-nitroso bond (thiol-bound, mercurous-displaceable nitrite) [7]: approximately 2.8 hours; IC50 ([8]; compared with coronary artery, p<0.05, n=6, read-out: IC50 (relaxation, femoral artery)): 5.6 µM; IC50 ([8]; norepinephrine-contracted, intact endothelium, FIG. 2, read-out: apparent IC50 (relaxation)): ~1 µM; potency of vasodilation relative to S-nitroso-N-acetylpenicillamine (literature value in the bovine coronary artery) ([8]; compared with Ignarro et al.): approximately one order of magnitude weaker; relaxation response (in words) ([8]; norepinephrine-contracted, FIG. 2): induced dose-dependant relaxation; also recorded: progressive relaxation was observed; effect on blood pressure (in words) [9]: clear decrease in blood pressure; cAMP levels, vessel rings (in words) [10]: did not change from basal levels; cGMP level, vascular rings [10]: 0.0375 pmol/mg tissue; fold induction at 10 µM ([10]; Bos taurus, 1 min, read-out: increase of cGMP levels, vascular rings): 36.5
